Entries after “also recorded” stand apart in the source; their conditions may differ. Where two headings read alike, the source gives them in different places.
Columns and labels:
NHDF = experiment: Cytotoxicity by SRB assay in low GLUT-1 normal cell line NHDF; type: cell-based; settings: Homo sapiens, low expression GLUT-1 normal cell line
Description: (§1) The fraction of cell survival was calculated as follows. Survival fraction=(OD treated−blank)/(OD control−blank). […] Each experiment was repeated three times.

[1] = Plasma pharmacokinetics in mice (UPLC-MS/MS); type: in vivo, BALB/c mice; settings: for T. of 5-FU: 5-FU measured in plasma
Description: (§2) In the following PK experiments, BALB/c mice (six weeks of age, male) were randomly divided into two groups (n=3). […] Blood samples were collected via femoral vein by syringes at 0, 1, 3, 5, 10, 15, 30, 45 min, 1, 2, 4, and 24 h after drug administration. 50 μL blood samples were collected into 100 μL extraction solvent (EtOAc/MeOH=1:1) and vortex for 30 sec. The supernatants were separated from the mixture by centrifugation at 10,000 rpm for 10 min and frozen at −30° C. pending UPLC-MS/MS analysis. For bio-distribution experiments, the entire dissected organs were placed into round-bottom after weighting, two-milliliter microcentrifuge tubes with 1 mL of extraction solvent (EtOAc/MeOH=1:1) and 7 mm stainless steel beads, then homogenized for 30 min. All of the containers were maintained at 4° C. throughout the process. The supernatants were separated from the mixture by centrifugation at 10,000 rpm for 10 min and frozen at −30° C. The 200 μL solvent from crude organ suspensions was removed by the dryer and then dissolved in 50 μL extraction solvent. All samples were stored at −30° C. and analyzed within 24 h. All of the samples were filtered through 0.22 μm PTFE membranes into 12×32 mm vials for UPLC-MS/MS analyses using 5-FU-^15N2 as a marker. Pharmacokinetic parameters were calculated using the WinNonlin Software (version 5.2, Pharsight, MO, USA.)
(§3) Analyses were performed on an ACQUITY UPLC I-Class/Xevo TQ-XS IVD System (Waters, Milford, MA, USA) from College of Public Health, National Taiwan University. The reverse phase BEH C18 (100 mm×2.1 mm, 1.7 μm, Waters) and VanGuard BEH C18 (5 mm×2.1 mm, 1.7 μm, Waters) precolumns were used to separate the analytes. All data were acquired by MassLynx V4.2. The mobile phase consisted of a 10 mM aqueous solution of ammonium acetate (A) and acetonitrile (B), set as follows: 0.00 min 98% A→1.00 min 98% A→3.00 min 10% A→4.50 min 10% A→4.60 min 98% A→6.00 min 98% A; at a rate of 0.5 mL/min for 6.00 min with 4 μL per injection. The column oven was maintained at 60° C. Multiple reaction monitoring (MRM) method was applied in quantification. Mass spectrometer parameters were as follows: capillary voltage, 3.0 kV/3.0 kV, respectively, for positive/negative ion mode; ion source temperature, 120° C.; desolvation temperature, 450° C.; cone gas flow (N2), 50 L/h; desolvation gas flow (N2), 700 L/h; multiplier, 650 V; and collision gas pressure (Ar), 3−4×10^−3 mbar.

[2] = Organ biodistribution in mice (UPLC-MS/MS); type: in vivo, BALB/c mice; settings: 1 hour post i.p. injection; for organ distribution of 5-FU, in words: compound 7 50 mg/kg, free 5-FU 9.5 mg/kg
Description: as §2
as §3, with “Mass spectrometer parameters were as follows: capillary voltage, 3.0 kV/3.0 kV, respectively, for positive/negative ion mode; ion source temperature, 120° C.; desolvation temperature, 450° C.; cone gas flow (N2), 50 L/h; desolvation gas flow (N2), 700 L/h; multiplier, 650 V; and collision gas pressure (Ar), 3−4×10^−3 mbar.” left out

HT-29 = experiment: Cytotoxicity by SRB assay in HT-29 cells
Description: Cancer cell lines were obtained from ATCC unless otherwise noted. HT-29 and HCT-116 cells were cultured in Dulbecco's Modified Eagle Medium (DMEM, Thermo Fisher Scientific) with 10% fetal bovine serum (FBS, Thermo Fisher Scientific) and 1% antibiotic-antimycotic (Thermo Fisher Scientific).
Briefly, CRC cells were seeded at a density of 5×10^3 cells/well in 96-well microtiter plates (100 μL/well), separated into two groups with or without GSH. After incubation for 24 hours, the culture medium was replaced by fresh medium (100 μL). […] After incubation, 10% cold trichloroacetic acid was gently added to each well and incubated at 4° C. for 1 h. The medium was removed, carefully washed with water, and dried at room temperature. […] The optical density (O.D.) was measured at 510 nm with Multi-Mode Microplate Reader (SpectraMax Paradigm, Beckman Coulter, U.S.). The fraction of cell survival was calculated as follows. Survival fraction=(OD treated−blank)/(OD control−blank). […] Each experiment was repeated three times.

HCT-116 = experiment: Cytotoxicity by SRB assay in HCT-116 cells; type: cell-based, human
Description: as §1

[3] = Human plasma stability (RP-HPLC); type: in vitro ADME; settings: 95% human plasma, 37° C.
Description: To access human plasma stability, synthesized conjugates were prepared in 95% human plasma. […] The mixture was centrifuged at 13,000 rpm for 5 min. […] For compounds 30 and 31, they were dissolved in DMA and added GSH (11.2 mM or 11.2 μM) solution which was prepared in sodium acetate buffer (10 mM, pH 5.0) in the ratio of 50/40 (v/v, drug in DMA/GSH solution) for final GSH of 5 mM or 5 μM in pH 7.0, respectively. After incubation for the indicated time, samples were centrifuged to collect the clear supernatant and stored at −30° C. until analysis. RP-HPLC injections were carried out at the specified conditions, and the area of peak was integrated for further calculation.

[4] = Stability and drug release in GSH (RP-HPLC); type: in vitro ADME
Description: […] After incubation for the indicated time, samples were centrifuged to collect the clear supernatant and stored at −30° C. until analysis. RP-HPLC injections were carried out at the specified conditions, and the area of peak was integrated for further calculation.

[5] = tested on: orthotopic CRC mice model; experiment: Orthotopic AOM/DSS-induced CRC mice model, tumor area; type: in vivo, BALB/c mice
Description: Azoxymethane (AOM)-induced murine CRC model was applied to model human CRC. BALB/c mice (6 weeks of age, male) were intraperitoneally (i.p.) injected once every two weeks with AOM (10 mg/kg body weight) or the PBS vehicle. Seven days after each AOM injection, 2% dextran sulfate sodium (DSS) was given in the drinking water for four days, followed by 3 days of regular water. This cycle was repeated three times. The mice were randomly divided into eight groups (n=5), on day 60 after the first AOM treatment. […] Tumor volumes and body weights were recorded at sacrifice. The tumors were counted under a dissecting microscope, and the area covered by tumors was measured by imaging software (AxioVision LE 4.8.2.0).

[6] = Body weight changes in the CRC mice model; type: in vivo, BALB/c mice; settings: for body weight change, in words: during treatment in CRC mice model
Description: Azoxymethane (AOM)-induced murine CRC model was applied to model human CRC. BALB/c mice (6 weeks of age, male) were intraperitoneally (i.p.) injected once every two weeks with AOM (10 mg/kg body weight) or the PBS vehicle. Seven days after each AOM injection, 2% dextran sulfate sodium (DSS) was given in the drinking water for four days, followed by 3 days of regular water. This cycle was repeated three times. The mice were randomly divided into eight groups (n=5), on day 60 after the first AOM treatment. […] Irinotecan (20 mg/kg), compound 31 (20 mg/kg), and irinotecan+compound 17 (20 mg/kg of irinotecan and 14 mg/kg of compound 17) were injected i.p. q.o.d for two weeks. […] Tumor volumes and body weights were recorded at sacrifice. The tumors were counted under a dissecting microscope, and the area covered by tumors was measured by imaging software (AxioVision LE 4.8.2.0).

[7] = tested on: CRC cell lines HCT-116 and HT-29; experiment: Cytotoxicity against CRC cell lines, summary over both lines (SRB assay); type: cell-based, human; settings: for cytotoxicity against CRC cell lines, in words: HCT-116 and HT-29, with or without GSH
Description: as §1

[8] = tested on: metastatic colorectal cancer; settings: cited from earlier work
pH stability analysis = type: physicochemical
[9] = Homo sapiens, HT-29, 48 h, read-out: IC50 HT-29 5 mM GSH
[10] = Homo sapiens, HT-29, 48 h, read-out: IC50 HT-29 w/o GSH
[11] = Homo sapiens, HCT-116, 48 h, w/o GSH, read-out: IC50 HCT-116 w/o GSH
[12] = 5-FU series, 50 mg/kg i.p. once every 3 days for 3 weeks

O=C(CCCSSCCOCCOCCOc1cc(O)c(C(=O)CCc2ccc(O)cc2)c(O)c1)OCn1cc(F)c(=O)[nH]c1=O [Compound 7, (5-Fluoro-2,4-dioxo-3,4-dihydropyrimidin-1(2H)-yl)methyl 4-((2-(2-(2-(3,5-dihydroxy-4-(3-(4-hydroxyphenyl)propanoyl)phenoxy)ethoxy)ethoxy)ethyl)disulfanyl)butanoate]
IC50 (NHDF): 90 ± 2.6 µM | plasma concentration of compound 7 after 5 min, in words ([1]; i.p. 50 mg/kg): below the detection limit | plasma concentration of 5-FU after 2 h, in words ([1]; i.p. injection): undetectable | T. of 5-FU ([1]; i.p. injection): 45 min | time within which 5-FU released from compound 7 was detected in blood ([1]; i.v. 50 mg/kg): ≤ 2 h | plasma concentration of compound 7 after 30 min, in words ([1]; i.v. 50 mg/kg, lower detection limit=0.003 μg/mL, detectable again after 45 min and 4 h): undetectable | organ distribution of the compound, in words ([2]; 50 mg/kg): distributed in the stomach, colon, heart, and liver | organ distribution of 5-FU, in words [2]: detected mainly in colon, with small amounts in the kidney and stomach | IC50 (HT-29; [9]): 3.8 µM | IC50 (HT-29; [10]): 19.6 ± 3.86 µM | IC50 (HCT-116; Homo sapiens, HCT-116, read-out: IC50 HCT-116 5 mM GSH, 48 h, 5 mM GSH): 10500 nM | IC50 (HCT-116; [11]): 21200 ± 1690 nM | half-life in human plasma [3]: 13 h | degradation after 48 h ([4]; 5 μM GSH, 48 h): 30% | cleavage percentage after 4 hours ([4]; 1 mM GSH): ~10% | cleavage percentage after 4 hours ([4]; 5 mM GSH): up to 60% | half-life at 2.5 mM ([4]; PBS containing 1 mM GSH, pH 7.4, half-life at 1 mM GSH, 1 mM GSH, PBS pH 7.4): 618 min | half-life at 2.5 mM ([4]; PBS containing GSH, pH 7.4, highly reductive environments, read-out: half-lives in highly reductive environments): < 300 min | reduction of tumor volume [5, 12]: 67% | tumor suppression (tumor area), in words ([5]; 5-FU series, i.p. once every three days for three weeks, compound 7 and 5-FU 50 mg/kg, 5-FU 10 mg/kg + compound 17 30 mg/kg): better tumor suppression than 5-FU | body weight change, in words [6]: without body weight loss; also recorded: no significant change in the body weight

CCc1c2c(nc3ccc(OC(=O)OCCSSCCOCCOCCOc4ccc(O)c(C(=O)CCc5ccc(O)cc5)c4O)cc13)-c1cc3c(c(=O)n1C2)COC(=O)[C@]3(O)CC [Compound 31, (S)-4,11-diethyl-4-hydroxy-3,14-dioxo-3,4,12,14-tetrahydro-1H-pyrano[3′,4′:6,7]indolizino[1,2-b]quinolin-9-yl(2-((2-(2-(2-(2,4-dihydroxy-3-(3-(4-hydroxyphenyl)propanoyl)phenoxy)ethoxy)eyhoxy)ethyl)disulfanyl)ethyl) carbonate]
cytotoxicity against CRC cell lines, in words [7]: less or similar cytotoxicity | IC50 (HT-29; read-out: IC50 HT-29 5 mM GSH, 48 h, prepared in DMA, 5 mM GSH): 0.0114 ± 0.00103 µM | IC50 (HT-29; read-out: IC50 HT-29 w/o GSH, 48 h, prepared in DMA, w/o GSH): 0.0163 ± 0.00131 µM | IC50 (HCT-116; 72 h, prepared in DMA, w/o GSH, read-out: IC50 HCT-116 w/o GSH): 2.87 ± 0.19 nM | IC50 (HCT-116; read-out: IC50 HCT-116 5 mM GSH, 72 h, prepared in DMA, 5 mM GSH): 2.59 ± 0.12 nM | half-life in human plasma [3]: 0.833 h | degraded after 48 h ([4]; 0 and 5 μM GSH, 48 h): 10% | degraded to SN-38 after 48 h ([4]; 5 mM GSH, 48 h): over 90% | reduction of tumor volume ([5]; SN-38 series, 20 mg/kg i.p. once every two days for two weeks): 70% | anti-tumor efficacy (tumor area), in words ([5]; SN-38 series, i.p. once every two days for two weeks, 20 mg/kg, irinotecan 20 mg/kg + compound 17 14 mg/kg): better anti-tumor efficacy than irinotecan | body weight change, in words [6]: did not decrease the body weight; also recorded: no significant change in the body weight

CCc1c2c(nc3ccc(OC(=O)N4CCC(N5CCCCC5)CC4)cc13)-c1cc3c(c(=O)n1C2)COC(=O)[C@]3(O)CC [Irinotecan (39), irinotecan, reference compound]
IC50 ([7]; Homo sapiens, HCT-116 and HT-29, over Tables 1 to 3, read-out: IC50 in CRC cells): 0.3 to 8.5 µM | IC50 (HT-29; Homo sapiens, HT-29, 48 h, read-out: IC50 HT-29): 8.51 ± 1.86 µM | IC50 (HT-29; [9]): 6.44 ± 0.3 µM | IC50 (HT-29; [10]): 5.61 ± 0.11 µM | IC50 (HCT-116; Homo sapiens, HCT-116, read-out: IC50 HCT-116 5 mM GSH, 72 h, prepared in DMA, 5 mM GSH): 320 ± 20 nM | IC50 (HCT-116; Homo sapiens, HCT-116, 48 h, prepared in DMSO, read-out: IC50 HCT-116): 3690 ± 240 nM | IC50 (HCT-116; Homo sapiens, HCT-116, 72 h, prepared in DMA, w/o GSH, read-out: IC50 HCT-116 w/o GSH): 360 ± 10 nM | response rate ([8]; phase II, single-agent, patients resistant to fluorouracil): about 27%

O=c1[nH]cc(F)c(=O)[nH]1 [5-FU, 5-fluorouracil, reference compound]
IC50 (NHDF): 70.4 ± 7.2 µM | T. of 5-FU ([1]; i.p. injection): 10 min | organ distribution of 5-FU, in words [2]: distributed in stomach, spleen, and kidney | reduction of tumor volume [5, 12]: 33% | mean response rate of patients ([8]; 5-FU-based chemotherapy): approximately 23% | loss of body weight ([6]; free 5-FU 50 mg/kg i.p., after injection): about 10%

O=C(CCc1cn(CCOCCOCCOc2cc(O)c(C(=O)CCc3ccc(O)cc3)c(O)c2)nn1)OCn1cc(F)c(=O)[nH]c1=O [Compound 9]
cytotoxicity against CRC cell lines, in words [7]: poorly cytotoxic | IC50 (HT-29; [10]): 85 ± 9.1 µM | IC50 (HCT-116; [11]): > 100000 nM | half-life [3]: 216 min | release of 5-FU, in words ([4]; 5 mM GSH, after 48 h): Little 5-FU was released | pH stability, in words (pH stability analysis; pH 4-5): stable | pH stability, in words (pH stability analysis; pH >7): prone to fully degrade

— patent publication US12458702B2 (NATIONAL TAIWAN UNIVERSITY, priority 2022, dated 2025)
